Patent US20250313548A1 (Actio Biosciences, Inc., priority 2023, published 2025)

target: human, KCNT1 (Homo sapiens (Human), UniProt Q5JUK3); experiment: FLIPR Tl/K Flux Assay; type: cell-based; conditions: HEK293 cells stably expressing human KCNT1; Tl+ flux stimulated with EC80 of agonist Loxapine
Outline: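 Inhibition values come from a Hill-equation fit of % inhibition versus log concentration, using normalized fluorescence (Fmax/Fmin) over a 160 s read. The read followed stimulation with Tl+ plus EC80 agonist loxapine after 30 min compound pre-incubation at 25 °C. Cells were KCNT1-expressing HEK293, dye-loaded 1 h in pH 7.4 HEPES/HBSS with 5 mM probenecid.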

Chain of human, KCNT1 (Q5JUK3 whole entry): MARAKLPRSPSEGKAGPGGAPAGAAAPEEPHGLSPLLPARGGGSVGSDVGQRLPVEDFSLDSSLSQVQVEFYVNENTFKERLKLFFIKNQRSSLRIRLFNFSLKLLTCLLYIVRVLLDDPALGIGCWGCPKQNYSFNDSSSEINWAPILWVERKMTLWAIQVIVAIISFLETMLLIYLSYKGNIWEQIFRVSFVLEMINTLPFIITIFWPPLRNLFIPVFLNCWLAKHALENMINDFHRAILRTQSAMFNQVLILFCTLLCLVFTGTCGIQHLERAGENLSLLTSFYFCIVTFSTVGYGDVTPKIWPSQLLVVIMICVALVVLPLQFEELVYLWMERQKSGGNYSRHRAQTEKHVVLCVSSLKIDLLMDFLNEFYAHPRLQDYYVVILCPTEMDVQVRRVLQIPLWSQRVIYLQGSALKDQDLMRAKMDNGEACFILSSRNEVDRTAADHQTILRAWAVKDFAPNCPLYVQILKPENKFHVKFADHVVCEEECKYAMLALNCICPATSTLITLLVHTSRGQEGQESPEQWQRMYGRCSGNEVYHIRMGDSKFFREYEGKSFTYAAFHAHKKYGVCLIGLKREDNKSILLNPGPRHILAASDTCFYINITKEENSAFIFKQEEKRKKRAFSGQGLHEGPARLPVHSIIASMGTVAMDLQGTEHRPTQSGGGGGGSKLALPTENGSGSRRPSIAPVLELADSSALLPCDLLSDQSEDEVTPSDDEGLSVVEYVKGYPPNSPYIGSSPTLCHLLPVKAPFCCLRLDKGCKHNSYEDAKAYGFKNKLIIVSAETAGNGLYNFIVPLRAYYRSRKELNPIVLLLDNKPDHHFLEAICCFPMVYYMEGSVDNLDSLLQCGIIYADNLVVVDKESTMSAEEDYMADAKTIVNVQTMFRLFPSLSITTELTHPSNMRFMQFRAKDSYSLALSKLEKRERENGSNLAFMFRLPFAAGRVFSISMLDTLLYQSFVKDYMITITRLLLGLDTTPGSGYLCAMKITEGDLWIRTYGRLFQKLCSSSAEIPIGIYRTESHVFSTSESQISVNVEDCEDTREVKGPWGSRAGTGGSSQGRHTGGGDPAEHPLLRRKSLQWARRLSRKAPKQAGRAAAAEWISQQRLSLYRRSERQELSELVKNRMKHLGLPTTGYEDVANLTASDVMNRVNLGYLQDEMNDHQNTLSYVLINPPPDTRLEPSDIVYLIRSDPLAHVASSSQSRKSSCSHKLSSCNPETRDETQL

Compound	IC50
COc1cc(-c2nc3c(o2)[C@@H](NC(=O)c2cccc(C(F)(F)F)c2)CCC3)c(Cl)cn1 [Compound I-167a, (S)-N-(2-(5-Chloro-2-methoxypyridin-4-yl)-4,5,6,7-tetrahydrobenzo[d]oxazol-7-yl)-3-(trifluoromethyl)benzamide]	< 250 nM
COc1cc(-c2nc3c(o2)[C@@H](NC(=O)c2cccc(C(F)(F)F)c2)CCC3)ccn1 [Compound I-168a, (S)-N-(2-(2-Methoxypyridin-4-yl)-4,5,6,7-tetrahydrobenzo[d]oxazol-7-yl)-3-(trifluoromethyl)benzamide]	< 250 nM
O=C(N[C@H]1CCCc2nc(-c3ccnc(C4CC4)c3)oc21)c1ccnc(OC(F)(F)F)c1 [Compound I-169a, (S)-N-(2-(2-Cyclopropylpyridin-4-yl)-4,5,6,7-tetrahydrobenzo[d]oxazol-7-yl)-2-(trifluoromethoxy)isonicotinamide]	< 250 nM
O=C(N[C@H]1CCCc2nc(-c3ccnc(C4CC4)c3)oc21)c1cccc(OC(F)(F)F)c1 [Compound I-170a, (S)-N-(2-(2-Cyclopropylpyridin-4-yl)-4,5,6,7-tetrahydrobenzo[d]oxazol-7-yl)-3-(trifluoromethoxy)benzamide]	< 250 nM
O=C(N[C@H]1CCCc2nc(-c3ccnc(C4CC4)c3)oc21)c1cccc(C(F)(F)F)c1 [Compound I-171a, (S)-N-(2-(2-Cyclopropylpyridin-4-yl)-4,5,6,7-tetrahydrobenzo[d]oxazol-7-yl)-3-(trifluoromethyl)benzamide]	< 250 nM
COc1cc(-c2cc3n(n2)CC[C@@H]3NC(=O)c2cc(C(F)(F)F)nn2C)c(C(F)(F)F)cn1 [Compound I-172a, (S)-N-(2-(2-Methoxy-5-(trifluoromethyl)pyridin-4-yl)-5,6-dihydro-4H-pyrrolo[1,2-b]pyrazol-4-yl)-1-methyl-3-(trifluoromethyl)-1H-pyrazole-5-carboxamide]	< 250 nM
COc1cc(-c2cc3n(n2)CC[C@H]3NC(=O)c2cc(C(F)(F)F)nn2C)c(C(F)(F)F)cn1 [Compound I-172b]	> 1000 nM
COc1cc(-c2nc3c(o2)[C@@H](NC(=O)c2cncc(C(F)(F)F)n2)CCC3)c(F)cn1 [Compound I-173a]	250 to 500 nM
COc1cc(-c2nc3c(o2)[C@@H](NC(=O)c2cc(Cl)cc(Cl)c2)CCC3)c(F)cn1 [Compound I-174a, (S)-3,5-Dichloro-N-(2-(5-fluoro-2-methoxypyridin-4-yl)-4,5,6,7-tetrahydrobenzo[d]oxazol-7-yl)benzamide]	< 250 nM
COc1cc(-c2nc3c(o2)[C@@H](NC(=O)c2ccnc(OC(F)(F)F)c2)CCC3)c(F)cn1 [Compound I-175a]	< 250 nM
COc1cc(-c2nc3c(o2)[C@@H](NC(=O)c2cccc(OC(F)(F)F)c2)CCC3)c(F)cn1 [Compound I-176a, (S)-N-(2-(5-Fluoro-2-methoxypyridin-4-yl)-4,5,6,7-tetrahydrobenzo[d]oxazol-7-yl)-3-(trifluoromethoxy)benzamide]	< 250 nM

Further lines, results first:

IC50	Compound
< 250 nM	COc1cc(-c2nc3c(o2)[C@@H](NC(=O)c2cccc(C(F)(F)F)c2)CCC3)c(F)cn1 [Compound I-177a, (S)-N-(2-(5-Fluoro-2-methoxypyridin-4-yl)-4,5,6,7-tetrahydrobenzo[d]oxazol-7-yl)-3-(trifluoromethyl)benzamide]
< 250 nM	Cc1cnc(C(F)(F)F)cc1-c1nc2c(o1)CCC[C@@H]2NC(=O)c1cc(C(F)(F)F)nn1C [Compound I-178a, (S)-1-Methyl-N-(2-(5-methyl-2-(trifluoromethyl)pyridin-4-yl)-4,5,6,7-tetrahydrobenzo[d]oxazol-4-yl)-3-(trifluoromethyl)-1H-pyrazole-5-carboxamide]
< 250 nM	O=C(N[C@H]1CCCn2nc(-c3cc(C(F)(F)F)ncc3Cl)cc21)c1ccnc(OC(F)(F)F)c1 [Compound I-179a, (S)-N-(2-(5-Chloro-2-(trifluoromethyl)pyridin-4-yl)-4,5,6,7-tetrahydropyrazolo[1,5-a]pyridin-4-yl)-2-(trifluoromethoxy)isonicotinamid]
< 250 nM	Cn1nc(C(F)(F)F)cc1C(=O)N[C@H]1CCCc2nc(-c3ccnc(C4CC4)c3)oc21 [Compound I-180a, (S)-N-(2-(2-Cyclopropylpyridin-4-yl)-4,5,6,7-tetrahydrobenzo[d]oxazol-7-yl)-1-methyl-3-(trifluoromethyl)-1H-pyrazole-5-carboxamide]
< 250 nM	Cc1cnc(C(F)(F)F)cc1-c1cc2n(n1)CCC[C@@H]2NC(=O)c1ccnc(OC(F)(F)F)c1 [Compound I-181a, (S)-N-(2-(5-Methyl-2-(trifluoromethyl)pyridin-4-yl)-4,5,6,7-tetrahydropyrazolo[1,5-a]pyridin-4-yl)-2-(trifluoromethoxy)isonicotinamide]
500 to 1000 nM	O=C(N[C@H]1CCCn2nc(-c3cc(C(F)(F)F)ncc3F)nc21)c1cncc(C(F)(F)F)n1 [Compound I-182a, (S)-N-(2-(5-Fluoro-2-(trifluoromethyl)pyridin-4-yl)-5,6,7,8-tetrahydro-[1,2,4]triazolo[1,5-a]pyridin-8-yl)-6-(trifluoromethyl)pyrazine-2-carboxamide]
< 250 nM	COc1cc(-c2cc3n(n2)CCCC[C@@H]3NC(=O)c2cc(F)cc(C#N)c2)c(F)cn1 [Compound I-183a, (S)-3-Cyano-5-fluoro-N-(2-(5-fluoro-2-methoxypyridin-4-yl)-5,6,7,8-tetrahydro-4H-pyrazolo[1,5-a]azepin-4-yl)benzamide]
< 250 nM	O=C(N[C@H]1CCCc2nc(-c3ccnc(C(F)(F)F)c3)oc21)c1cncc(C(F)(F)F)n1 [Compound I-184a, (S)-6-(Trifluoromethyl)-N-(2-(2-(trifluoromethyl)pyridin-4-yl)-4,5,6,7-tetrahydrobenzo[d]oxazol-7-yl)pyrazine-2-carboxamide]
< 250 nM	O=C(N[C@H]1CCCc2nc(-c3ccnc(C(F)(F)F)c3)oc21)c1cc(Cl)cc(Cl)c1 [Compound I-185a, (S)-3,5-Dichloro-N-(2-(2-(trifluoromethyl)pyridin-4-yl)-4,5,6,7-tetrahydrobenzo[d]oxazol-7-yl)benzamide]
< 250 nM	O=C(N[C@H]1CCCc2nc(-c3ccnc(C(F)(F)F)c3)oc21)c1ccnc(OC(F)(F)F)c1 [Compound I-186a, (S)-2-(Trifluoromethoxy)-N-(2-(2-(trifluoromethyl)pyridin-4-yl)-4,5,6,7-tetrahydrobenzo[d]oxazol-7-yl)isonicotinamide]
< 250 nM	O=C(N[C@H]1CCCc2nc(-c3ccnc(C(F)(F)F)c3)oc21)c1cccc(OC(F)(F)F)c1 [Compound I-187a, (S)-3-(Trifluoromethoxy)-N-(2-(2-(trifluoromethyl)pyridin-4-yl)-4,5,6,7-tetrahydrobenzo[d]oxazol-7-yl)benzamide]
< 250 nM	O=C(N[C@H]1CCCc2nc(-c3ccnc(C(F)(F)F)c3)oc21)c1cccc(C(F)(F)F)c1 [Compound I-188a, (S)-3-(Trifluoromethyl)-N-(2-(2-(trifluoromethyl)pyridin-4-yl)-4,5,6,7-tetrahydrobenzo[d]oxazol-7-yl)benzamide]
< 250 nM	Cn1nc(C(F)(F)F)cc1C(=O)N[C@H]1CCCc2oc(-c3cc(C(F)(F)F)ncc3Cl)nc21 [Compound I-189a]
